Among the data in PMC3349093, “Immobilized Horseradish Peroxidase on Discs of Polyvinyl Alcohol-Glutaraldehyde Coated with Polyaniline” (The Scientific World Journal, 2012) are Km values, retold here.

Broadly, the Km is the concentration of substrate that gives half-maximal velocity.

The test has as its system T1, soluble HRP (horseradish peroxidase).
T1 construct: gene PRXC1A; soluble (free) enzyme, gift of Dr. Elba Bon (UFRJ)
Description: spectrophotometric, purpurogallin formation at […] nm, nonlinear hyperbolic fit. It counts as biochemical, Armoracia rusticana. The note with it: soluble enzyme; co-substrate H2O2 (0.25 mL of 5 mM); pyrogallol 4.0-48.7 mM; 28 °C; pH of kinetics not clearly stated (4.5 or 7.0).

For `Oc1cccc(O)c1O` [pyrogallol], the Km came to 5.47 ± 0.71 mM.
